Laboratory results published in patent US8124565B2, “Method of protecting a plant propagation material, a plant, and/or plant organs” (priority 2006, dated 2012).
Read-outs that look alike come from different tables or passages of the source.

How the values were obtained:
Pyrenophora graminea [1] = assay: Pyrenophora graminea/barley (stripe disease) seed treatment test; type: in vivo; settings: seed treatment 20 g/100 kg, infected winter barley seeds
Procedure: A-1. Pyrenophora graminea/Barley (Stripe Disease on Barley)
After application of the formulated seed treatment onto P. graminea-infected seeds of winter barley the seeds are sown in trays filled with field soil. The trays are kept in a growth room for 3 weeks at 4° C. After this period the trial is transferred to a greenhouse where a temperature of 12° C. and a 14 hr light period is provided. The following assessments are made: emergence count, final stand count, number of infected plants.

Rhizoctonia solani = assay: Rhizoctonia solani/cotton (damping off) seed treatment test; type: in vivo; settings: seed treatment 200 g/100 kg, cotton seeds in inoculated soil
Procedure: A-2. Rhizoctonia solani/Cotton (Damping Off on Cotton)
A defined amount of mycelium of R. solani is blended with soil and trays are filled with the inoculated soil. The formulated test compounds are applied to cotton seeds. The treated cotton seeds are then sown into the inoculated soil. Until germination the test is stored at 20° C. and a rel. humidity of 90% in the dark. After germination the test is transferred to 25° C. and a rel. humidity of 70% with a photoperiod of 14 h. The evaluation is done by counting the emerged cotton plants and the number of emerged and diseased plants.

Fusarium graminearum [2] = type: in vivo; settings: seed treatment 20 g/100 kg, corn seeds (cv. Magister) in inoculated soil
Pyrenophora graminea [3] = assay: Fungal growth assay, Pyrenophora graminea (microtiter plate, PDB); type: cell-based; settings: 72 hrs
Gäumannomyces graminis = assay: Fungal growth assay, Gäumannomyces graminis (microtiter plate, PDB); type: cell-based; settings: 72 hrs
Fusarium graminearum [4] = type: cell-based; settings: 48 hrs

SMILES | activity (Pyrenophora graminea [1]) | activity (Rhizoctonia solani) | activity (Fusarium graminearum [2]) | Observed control in % (% Cobs) (Pyrenophora graminea [3]; 0.5 ppm) | Observed control in % (% Cobs) (Gäumannomyces graminis; 0.25 ppm) | Observed control in % (% Cobs) (Fusarium graminearum [4]; 0.03125 ppm) | Observed control in % (% Cobs) (Fusarium graminearum [4]; 0.0625 ppm) | Observed control in % (% Cobs) (Fusarium graminearum [4]; 0.125 ppm) | Observed control in % (% Cobs) (Fusarium graminearum [4]; 0.25 ppm) | Observed control in % (% Cobs) (Pyrenophora graminea [3]; 0.25 ppm) | Observed control in % (% Cobs) (Gäumannomyces graminis; 0.5 ppm)
Cc1ccc(C2CC(C)(c3cccnc3)N(C)O2)cc1 (stereo not drawn) [Compound of formula I] | 100% | 70% | 100% | 62.3% | 26.0% | 0% | 3.5% | 4.4% | 12.5% |  | 
Cn1cc(C(=O)Nc2ccccc2C2CC2C2CC2)c(C(F)F)n1 (stereo not drawn) [Compound of formula A, reference compound] |  |  |  |  |  | 1.6% | 2.4% | 8.4% | 7.8% | 0% | 74.8%
